Assay results taken from patent US7678789B2, “[1,2,4]-dithiazoli(di)ne derivatives, inducers of gluthathione-S-transferase and NADPH quinone oxido-reductase, for prophylaxis and treatment of adverse conditions associated with cytotoxicity in general and apoptosis in particular” (Solvay Pharmaceuticals B.V., priority 2005, dated 2010).

Experiments:
[1] = system: NAD(P)H: oxidoreductase (NQO, EC 1.6.99.2); assay: Spectrophotometric determination of EC 1.6.99.2 (NQO) induction in PC-12 cells; assay type: cell-based; conditions: Rat PC-12 cells, 24 hours incubation; negative logarithm of molar concentration causing same half maximal induction as reference compound D3T; menadione/MTT
Experimental: Spectrophotometric Determination of EC 1.6.99.2 (NQO) Induction
Rat PC-12 cells are incubated for 24 hours with a test compound. NAD(P)H: oxidoreductase (NQO, EC 1.6.99.2) activity is measured using menadione as substrate and MTT as readout compound. The formation of formazan from MTT is measured spectrophotometrically at 540 nm. The percentage stimulation (PS) relative to the maximal effect of the reference compound D3T is calculated. The maximal percentage stimulation with the concentration which induced the maximal percentage as condition and the pEA50 value (the negative logarithm of the molar concentration of the compound which caused the same half maximal induction of the enzyme activity as the reference compound D3T) are recorded (see Murphy et al., “Enhanced NAD(P)H:Quinone reductase activity defenses in neuronal cells prevents free radical-mediated damage”, J. Neurochem., 71 69-77, 1998 and Prochaska et al., Analytical Biochemistiy, 169, 328-336 1988).

[2] = system: gluthathione-S-transferase (GST, EC 2.5.1.18); assay: Spectrophotometric determination of EC 2.5.1.18 (GST) induction in PC-12 cells; assay type: cell-based; conditions: Rat PC-12 cells, 24 hours incubation; negative logarithm of molar concentration causing 50% induction of enzyme activity; CDNB and GSH substrates
Experimental: Spectrophotometric Determination of EC 2.5.1.18 (GST) Induction
Rat PC-12 cells are incubated for 24 hours with a test compound. GST activity is measured using 1-chloro-2,4-dinitrobenzene (CDNB) and gluthathine (GSH) as substrates. The enzyme catalyses the reaction converting these substrates into S-(2,4-dinitrophenyl)glutathione, which product is measured spectrophotometrically at 340 nm. The effect of the test compound is expressed as pEC50: the negative logarithm of the molar concentration of the compound which causes 50% induction of the enzyme activity. Also the maximal percentage enzyme induction is determined. (see Drukarch et al. “Anethole dithiolethione prevents oxidative damage in gluthathione-depleted astrocytes”, Eur. J. Pharmacol. 329, 259-262, 1997).

| Compound | melting point | GST pEC50 [2] | NQO pEA50 [1] |
| --- | --- | --- | --- |
| CN(C)c1nc(=Nc2ccc([N+](=O)[O-])cc2)ss1 [Compound A10] | 170 to 171.5 °C | 5.4 | 5.8 |
| Cc1cccc(N=c2nc(N3CCOCC3)ss2)c1 [Compound B5] | 217 to 226 °C | 5.3 | 5.7 |
| CCCCc1ccc(N=c2nc(N(C)C)ss2)cc1 [Compound A2] | 81 to 82.5 °C | 5.2 | 5.2 |

Second part, led by results:

| melting point | GST pEC50 [2] | Compound | NQO pEA50 [1] |
| --- | --- | --- | --- |
| 76.5 to 77.6 °C | 5.6 | CN=c1ssc(=Nc2cccc(F)c2)n1C [Compound C11] | 5.3 |
| 100 to 101.4 °C | 5.8 | CN=c1ssc(=Nc2ccccc2C)n1C [Compound C3] | 5.7 |
| 80 to 82 °C | 5.8 | CN=c1ssc(=Nc2ccccc2)n1C [Compound C2] | 6.2 |
